# Assay results from ChEMBL document CHEMBL1772933, “Didemnidines A and B, indole spermidine alkaloids from the New Zealand ascidian Didemnum sp” (J Nat Prod, 2011).
# Calls of active or inactive are those of the source. No cut-off for these calls is given here.
# Key:
# Neutrophil = experiment: Inhibition of PMA-stimulated superoxide production in human neutrophils assessed as respiratory burst; format: functional, cell-based
# [1] = system: Trypanosoma brucei rhodesiense; experiment: Antiparasitic activity against bloodstream form of Trypanosoma brucei rhodesiense STIB 900 after 72 hrs by microplate reader assay; format: functional, organism-based; conditions: STIB 900, 72 h
# Leishmania donovani = experiment: Antiprotozoal activity against Leishmania donovani MHOM/ET/67/L82 after 72 hrs by fluorimetry; format: functional, organism-based; conditions: MHOM/ET/67/L82, 72 h
# Saccharomyces cerevisiae = experiment: Inhibition of yeast FTase in presence of farnesyl pyrophosphate
# L6 = experiment: Cytotoxicity against rat L6 cells after 72 hrs by alamar blue assay; format: cell-based; conditions: L6, 72 h
# [2] = biological target: T1, Phospholipase A2 (Apis mellifera) (UniProt P00630); experiment: Inhibition of Apis mellifera venom PLA2 by colorimetric bioassay
# T1 sequence (whole entry): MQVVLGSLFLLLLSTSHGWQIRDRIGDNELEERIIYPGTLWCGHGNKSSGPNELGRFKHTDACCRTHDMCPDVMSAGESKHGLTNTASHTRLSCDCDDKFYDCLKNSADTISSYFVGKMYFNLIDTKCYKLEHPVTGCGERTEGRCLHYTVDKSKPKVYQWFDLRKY
# Trypanosoma cruzi = experiment: Antiparasitic activity against intracellular amastigotes of Trypanosoma cruzi Tulahuen C2C4 expressing LacZ gene infected in rat L6 cells after 96 hrs by photometrically; format: functional, organism-based; conditions: Tulahuen C2C4, L6, 96 h
# Plasmodium falciparum = experiment: Antimalarial activity against chloroquine- and pyrimethamine-resistant Plasmodium falciparum K1 assessed as [3H]-hypoxanthine incorporation after 48 hrs by liquid scintillation counting; format: functional, organism-based
Structure (SMILES),inhibition (Neutrophil),IC50 [1],IC50 (Leishmania donovani),inhibition (Saccharomyces cerevisiae),IC50 (L6),inhibition [2],IC50 (Trypanosoma cruzi),IC50 (Plasmodium falciparum)
Cn1cncc1C1=C(c2c[nH]c3cc(Br)ccc23)C(=O)NC1=O,inactive,,,,,,,
NCCCCNCCCNC(=O)C(=O)c1c[nH]c2ccccc12 [DIDEMNIDINE A],inactive,59 µM,> 180 µM,inactive,24 µM,inactive,130 µM,41 µM
O=C1NC(=O)C(c2c[nH]c3ccccc23)=C1c1cnc[nH]1,inactive,,,,,,,
CC(C)(C)OC(=O)NCCCCNCCCNC(=O)C(=O)c1c[nH]c2ccccc12,inactive,34 µM,> 190 µM,inactive,73 µM,inactive,88 µM,32 µM
CC(C)(C)OC(=O)NCCCCNCCCNC(=O)C(=O)c1c[nH]c2cc(Br)ccc12,inactive,9.9 µM,> 160 µM,inactive,25 µM,inactive,28 µM,8.4 µM
COc1cc([C@@H]2c3cc4c(cc3[C@H](O)[C@H]3COC(=O)[C@H]23)OCO4)cc(OC)c1OC [PODOFILOX],,,,,0.01 µM,,,
CCCCCCCCCCCCCCCCOP(=O)([O-])OCC[N+](C)(C)C [MILTEFOSINE],,,0.52 µM,,,,,
O=C1NC(=O)C(c2c[nH]c3cc(Br)ccc23)=C1c1cnc[nH]1,inactive,,,,,,,
Cn1cncc1C1=C(c2c[nH]c3ccccc23)C(=O)NC1=O,inactive,,,,,,,
NCCCCNCCCNC(=O)C(=O)c1c[nH]c2cc(Br)ccc12 [DIDEMNIDINE B],inactive,44 µM,> 160 µM,inactive,25 µM,inactive,82 µM,15 µM
O=C(Cn1ccnc1[N+](=O)[O-])NCc1ccccc1 [BENZNIDAZOLE],,,,,,,1.35 µM,
